Results on 1 compound are retold here after patent US7442801B2, “Pyrazole compound” (Sumitomo Chemical Company, Limited, priority 2003, dated 2008).

The test system of the assay is Tetranychus urticae. Kind of assay: Test Example 1: Controlling Rate against Tetranychus urticae on brush bean, spray. As to conditions: 500 ppm, 30 ml sprayed on brush bean (Phaseolus vulgaris) with female adults. The format is in vivo. The procedure: Each of the present compounds (2) to (15), (17) to (33), (36) to (40) and the comparative compound described below was formulated according to Formulation Example 5, and each formulations was diluted with water so that the concentration of the present compound or the comparative compound came to 500 ppm.
About twenty female adults of Tetranychus urticae were set free on brush bean (Phaseolus vulgaris) in the primary leaf stage, which had been potted in a plastic cup for 7 days after the seeding. After 1 day, a 30 ml of the diluted formulation described-above was sprayed over the plant. On the 8th and 13th day after the application, the numbers of lived Tetranychus urticae on the leaf of brush bean plant were examined, and the Controlling Rates were calculated by the following scheme. Controlling Rate=100×{1−(a number of lived Tetranychus urticae in the treatment)/(a number of lived Tetranychus urticae in the non-treatment)}

For `Cc1nn(C)c(Oc2ccc(Oc3ccc(C(F)(F)F)cc3)cc2)c1C=NOCc1ccccc1` [comparative compound], the “Controlling Rate” value (8th day after the application) is recorded as “less than 30%” and the “Controlling Rate” value (13th day after the application) is listed as “less than 30%”.
